Assay results reported in PubChem BioAssay AID1845196 (Molecular Pharmacology Branch, DTP, NCI, 2023).
pIC50: −log10 of the molar value.

Test system: 292921-168-R tumor spheroid viability
Experiment: Anticancer human tumor 292921-168-R patient-derived pancreatic carcinoma cell line growth inhibition
Details: spheroids with HUVEC and MSC; for pIC50: curve of first compound; for viability, T/C: stronger effect = lower value
Description: Multicellular complex tumor spheroid response to DNA repair inhibitors in combination with DNA-damaging drugs
This study explores the anticancer activities of DNA-damaging drugs and inhibitors of DNA damage repair, both as single agents and in combinations. Complex tumor spheroids comprised of malignant cells, endothelial cells and mesenchymal stem cells served as an in vitro model for human solid tumors. This model system incorporates physiologically relevant features and patient-derived or established malignant cell lines with clinically relevant genetic alterations from many tumor types. Twenty-six patient-derived or established malignant cell lines were evaluated representing sarcoma, melanoma, small cell lung cancer (SCLC), non-small cell lung cancer (NSCLC), as well as bladder, ovarian and pancreatic cancers. The concentration ranges selected for each drug and investigational agent were based upon clinically achievable concentrations if the clinical Cmax of the agent was known.
Compounds. The drugs and compounds olaparib (NSC753686), talazoparib (NSC767125), berzosertib (NSC777718), elimusertib (NSC800525), nedisertib (NSC802822), VX-984 (NSC792969), AZD-1390 (NSC803789), temozolomide (NSC362856), topotecan (NSC609699), trabectedin (NSC813783), staurosporine (NSC755774), and gemcitabine (NSC613327) were obtained from the National Cancer Institute (NCI) Developmental Therapeutics Program Chemical Repository. The FDA-approved anticancer drug set is available from the Developmental Therapeutics Program at https://dtp.cancer.gov/organization/dscb/obtaining/available_plates.htm. […] The stock solutions were prepared in dimethyl sulfoxide (DMSO, Sigma-Aldrich, St. Louis, MO, cat. D2650) at 400-fold the tested concentration and stored at -70 degrees C. Prior to their use, the stock solutions were diluted in fresh medium and the final DMSO concentration in the assay was 0.25% (v/v). All drugs and investigational agents were tested over a range starting from a high concentration at or near the clinical Cmax and decreasing in half-log increments. If the clinical Cmax for an agent had not been determined, the highest concentration tested was 10 microM.
Cell Lines. The patient-derived cancer cell (PDC) lines: 156681-154-R-J1-PDC, 283228-195-R-J1-PDC, 287954-098-R-J1-PDC, 292921-168-R-J2-PDC, 349418-098-R-PDC, 425362-245-T-J1-PDC, 556581-035-R-J1-PDC, and BL0293-F563-PDC were received from the NCI Patient-Derived Models Repository (PDMR, https://pdmr.cancer.gov). The established cell lines HS-SY-2 (RRID:CVCL_8719), MPNST, and SYO-1 (RRID:CVCL_7146) were obtained from the Sloan Kettering Institute. The alveolar soft parts sarcoma cell line ASPS-1 (RRID:CVCL_S738) was established at the NCI and grown from internal seed stocks. The following established cell lines were purchased from the American Type Culture Collection (ATCC, Manassas, VA): G-401 (ATCC, cat. CRL-1441, RRID:CVCL_0270), SW982 (ATCC, cat. HTB-93, RRID:CVCL_1734), VA-ES-BJ (ATCC, cat. CRL-2138, RRID:CVCL_1785), NCI-H719 (ATCC, cat. CRL-5837, RRID:CVCL_1582), NCI-H196 (ATCC, cat. CRL-5823, RRID:CVCL_1509), NCI-H841 (ATCC, cat. CRL-5845, RRID:CVCL_1595), NCI-H1618 (ATCC, cat. CRL-5879, RRID:CVCL_1480), NCI-H1876 (ATCC, cat. CRL-5902, RRID:CVCL_1503), DMS 114 (ATCC, cat. CRL-2066; RRID:CVCL_1174), NCI-H211 (ATCC, cat. CRL-5824; RRID:CVCL_1529), and SW 1271 (ATCC, cat. CRL-2177, RRID:CVCL_1716). The small cell lung cancer cell line COR-L88 was purchased from Sigma-Aldrich (cat. 92031917-1VL, RRID:CVCL_1141). The non-small cell lung cancer cell lines NCI-H226 (RRID:CVCL_1544) and NCI-H322M (RRID:CVCL_1557) were established at the NCI and grown from internal seed stocks. Pooled donor human umbilical vein endothelial cells (HUVEC, Lonza, cat. CC-2519) and human mesenchymal stem cells (hMSC, Lonza, cat. PT-2501) were purchased from Lonza (Walkersville, MD).
Cell Culture. All cells were maintained in an incubator at 37 degrees C and 5% CO2 with 95% humidity. […]
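Note: spheroids exposed to compounds for 7 days.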

Compound `Cc1cc(C)c(CNC(=O)c2cc(-c3ccc(CN4CCOCC4)cc3)cc3c2cnn3C2CCCC2)c(=O)[nH]1` + COc1cc2c(cc1O)CCNC21CSC2c3c(OC(C)=O)c(C)c4c(c3C(COC1=O)N1C(O)C3Cc5cc(C)c(OC)c(O)c5C(C21)N3C)OCO4 has a pIC50 (second compound 30 pM) of less than 5.00, a pIC50 (second compound 94.9 pM) of less than 5.00 and a pIC50 (second compound 0.0003 µM) of 6.20. The pIC50 (second compound 0.000949 µM) was greater than 7.50, the pIC50 (second compound 0.003 µM) was greater than 7.50 and the viability, T/C (second compound 30 pM, first compound 0.0316 µM) was 99.1%. For the same compound, the viability, T/C (second compound 30 pM, first compound 0.1 µM) was 113%, the viability, T/C (second compound 30 pM, first compound 0.316 µM) was 110% and the viability, T/C (second compound 30 pM, first compound 1 µM) was 109%. For the same compound, the viability, T/C (second compound 30 pM, first compound 3.16 µM) was 101%, the viability, T/C (second compound 30 pM, first compound 10 µM) was 84.2% and the viability, T/C (second compound 94.9 pM, first compound 0.0316 µM) was 97.7%. For the same compound, the viability, T/C (second compound 94.9 pM, first compound 0.1 µM) was 107%, the viability, T/C (second compound 94.9 pM, first compound 0.316 µM) was 108% and the viability, T/C (second compound 94.9 pM, first compound 1 µM) was 102%. It also gave a viability, T/C (second compound 94.9 pM, first compound 3.16 µM) of 101%, a viability, T/C (second compound 94.9 pM, first compound 10 µM) of 78% and a viability, T/C (second compound 0.0003 µM, first compound 0.0316 µM) of 50%. For the same compound, the viability, T/C (second compound 0.0003 µM, first compound 0.1 µM) was 55.4%, the viability, T/C (second compound 0.0003 µM, first compound 0.316 µM) was 47.4% and the viability, T/C (second compound 0.0003 µM, first compound 1 µM) was 49%. For the same compound, the viability, T/C (second compound 0.0003 µM, first compound 3.16 µM) was 48%, the viability, T/C (second compound 0.0003 µM, first compound 10 µM) was 40.5% and the viability, T/C (second compound 0.000949 µM, first compound 0.0316 µM) was 5.06%. The viability, T/C (second compound 0.000949 µM, first compound 0.1 µM) was 5.13%, the viability, T/C (second compound 0.000949 µM, first compound 0.316 µM) was 5.06% and the viability, T/C (second compound 0.000949 µM, first compound 1 µM) was 3.5%. It also gave a viability, T/C (second compound 0.000949 µM, first compound 3.16 µM) of 3.21%, a viability, T/C (second compound 0.000949 µM, first compound 10 µM) of 4.34% and a viability, T/C (second compound 0.003 µM, first compound 0.0316 µM) of 0.15%. It also gave a viability, T/C (second compound 0.003 µM, first compound 0.1 µM) of 0.18%, a viability, T/C (second compound 0.003 µM, first compound 0.316 µM) of 0.17% and a viability, T/C (second compound 0.003 µM, first compound 1 µM) of 0.15%. It also gave a viability, T/C (second compound 0.003 µM, first compound 3.16 µM) of 0.17% and a viability, T/C (second compound 0.003 µM, first compound 10 µM) of 0.23%.
